system: ES-2 cells; assay: Cytotoxicity / cell vitality by cell confluency (IncuCyte live-cell imaging) relative to DMSO controls; type: cell-based; details: Homo sapiens, ovarian cancer-derived ES-2 cells, 72 h post compound application, eleven concentrations, two-fold dilution from 20µM, mean of three independent studies
Procedure: All novel inhibitors were explored for their cytotoxic activity in ovarian cancer-derived ES-2 cells. In these cell models, BTYNB was prior shown to impair cell vitality and metastatic potential in vitro and cancer mouse models (15). For the respective studies ES-2 cells were plated and exposed to increasing concentration of the compounds and cell vitality was monitored by determining cell confluency relative to DMSO controls using an IncuCyte cell imaging system, essentially as described recently (15). For determining the impact of the developed compounds on ES-2 cell vitality, cells were cultured in Dulbecco's modified eagle medium (DMEM) containing phenol red, 4.5 g/L D-Glucose, 0.11 g/L sodium pyruvate, 10% (v/v) fetal bovine serum (FBS) and 2 mM GlutaMAX (Sigma-Aldrich, Darmstadt, Germany). Cells were maintained in under humidified conditions at 37 °C, 5% CO2. For cytotoxicity studies, cells were seeded in 96-well flat-bottom plates at 2 x 10^3 cells per well in 100 µL supplemented DMEM and incubated for 24 h prior to addition of BTYNB derivatives. Compounds were analyzed at eleven concentrations using a two-fold dilution with an initial compound concentration of 20µM in DMSO (solvent). Cells treated with 0.002% (v/v) DMSO served as controls. Cytotoxicity of compound concentrations was determined 72 h post compound application by monitoring cell confluency using an IncuCyte Systems for Live-Cell Imaging. Cell confluency was determined with the IncuCyte 2019B Rev2 software. Confluency of controls was set to 1 (100%) and altered confluency at distinct compound concentrations was calculated as relative confluency. The mean relative confluency at compound concentrations was analyzed in three independent studies with three technical replicates each. The mean values of three analyses were plotted against the logarithmic concentration of compounds and fitted by the non-linear module [Sigmoidal, 4PL, X is log(concentration)] using GraphPad Prism V9(86) for macOS. In Table 1 compounds with EC50 values, indicating the potency of the 58 developed compounds to impair cell vitality, are listed. […] Table 2: EC-values of the synthesized compounds of formula (I)

Compared with NC(=O)c1ccccc1OCc1ccc(Cl)s1 [compound 1, 2-[(5-chlorothiophen-2-yl)methoxy]benzamide], NC(=O)c1ccccc1NC(=O)c1ccc(Cl)s1 [compound 13, N-(2-carbamoylphenyl)-5-chlorothiophene-2-carboxamide] is 2.4-fold lower in EC50: 5.61 µM for the first, 2.3 µM for the second. The second is the more potent here.

Going from Cc1ccc(C(=O)Nc2ccccc2C(N)=O)s1 [compound 2, N-[2-(aminocarbonyl)phenyl]-5-methyl-2-thiophenecarboxamide] to NC(=O)c1ccccc1NC(=O)c1ccccc1 [compound 14, N-(2-carbamoylphenyl)benzamide], the EC50 rises from 2.06 µM to 10.5 µM (5.1-fold). The first is the more potent here.

Going from COc1cc(-c2nc3ccccc3c(=O)[nH]2)ccc1OCc1ccccc1[N+](=O)[O-] [compound 3, 2-{3-Methoxy-4-[(2-nitrobenzyl)oxy]phenyl}-4(3H)-quinazolinone] to O=c1[nH]c(-c2ccc(OCc3ccccc3F)cc2)nc2ccccc12 [compound 4, 2-{4-[(2-Fluorobenzyl)oxy]phenyl}-4(3H)-quinazolinone], the EC50 falls from 0.476 µM to 0.25 µM (1.9-fold).

Going from COc1ccc(OCc2cc(-c3nc4sc(Cc5ccccc5)cc4c(=O)[nH]3)ccc2OC)cc1 [compound 5, 6-Benzyl-2-{4-methoxy-3-[(4-methoxyphenoxy)methyl]phenyl}thieno[2,3-d]pyrimidin-4(3H)-one] to COc1ccc(C(=O)Nc2sc(Cc3ccccc3)cc2C(N)=O)cc1 [compound 41, 5-Benzyl-2-[(4-methoxybenzoyl)amino]-3-thiophenecarboxamide], the EC50 rises from 1.12 µM to 1.94 µM (1.7-fold).

First: CC(Sc1nnc(NC(=O)c2ccccc2)s1)c1nc2ccccc2c(=O)[nH]1 (stereo not shown) [compound 6, N-(5-{[1-(4-oxo-3,4-dihydro-2-quinazolinyl)ethyl]thio}-1,3,4-thiadiazol-2-yl)benzamide]
Second: NC(=O)c1cc(Cc2ccccc2)sc1NC(=O)c1ccccc1 [compound 37, 2-(Benzoylamino)-5-benzyl-3-thiophenecarboxamide]
The EC50 of the first is 1.8-fold higher: 4.05 µM for the first, 2.27 µM for the second.

First: Cc1cc2c(=O)[nH]c(Cc3ccccc3)nc2s1 [compound 7, 2-Benzyl-6-methylthieno[2,3-d]pyrimidin-4(3H)-one]
Second: Cc1ccc(C(=O)Nc2sc(Cc3ccccc3)cc2C(N)=O)o1 [compound 35, N-[3-(Aminocarbonyl)-5-benzyl-2-thienyl]-5-methyl-2-furamide]
The EC50 of the first is 3.6-fold higher: 4.84 µM for the first, 1.34 µM for the second.

Compared with CNC(=O)c1ccccc1NC(=O)c1cc(C)c(C)s1 [compound 8, 4,5-Dimethyl-N-[2-(methylcarbamoyl)phenyl]thiophene-2-carboxamide], COc1ccc(C(=O)Nc2ccccc2C(N)=O)cc1Cl [compound 16, N-[2-(aminocarbonyl)phenyl]-3-chloro-4-methoxybenzamide] is 2.1-fold higher in EC50: 2.83 µM for the first, 5.84 µM for the second. The first is the more potent here.

NC(=O)c1cc(Cl)ccc1OCC(=O)c1ccc(Cl)s1 [compound 9, 5-chloro-2-[2-(5-chlorothiophen-2-yl)-2-oxoethoxy]benzamide] and NC(=O)c1cc(Cc2ccccc2)sc1NC(=O)c1ccc(Cl)s1 [compound 36, N-[3-(Aminocarbonyl)-5-benzyl-2-thienyl]-5-chloro-2-thiophenecarboxamide] are within 1.5-fold of each other in EC50: 1.33 µM for the first, 1.66 µM for the second.

NC(=O)c1ccsc1NC(=O)c1cccs1 [compound 10, N-[3-(aminocarbonyl)-2-thienyl]-2-thiophenecarboxamide] and CCc1cc(C(=O)Nc2sccc2C(N)=O)cs1 [compound 15, 2-{[(5-Ethyl-3-thienyl)carbonyl]amino}-3-thiophenecarboxamide] are within 1.5-fold of each other in EC50: 3.23 µM for the first, 2.95 µM for the second.

First: NC(=O)c1ccccc1NC(=O)C1CCN(C(=O)c2cccs2)CC1 [compound 11, N-[2-(aminocarbonyl)phenyl]-1-(2-thienylcarbonyl)-4-piperidinecarboxamide]
Second: NC(=O)c1ccccc1NC(=O)CN1CCN(Cc2ccccc2Cl)CC1 [compound 24, 2-({[4-(2-Chlorobenzyl)-1-piperazinyl]acetyl}amino)benzamide]
The EC50 of the first is 1.8-fold lower: 5.18 µM for the first, 9.58 µM for the second. The first is the more potent here.

Going from NC(=O)c1ccccc1NC(=O)c1ccc(Cl)c(Cl)c1 [compound 12, N-[2-(aminocarbonyl)phenyl]-3,4-dichlorobenzamide] to NC(=O)c1ccccc1NC(=O)c1cc(Cl)cc(Cl)c1 [compound 18, N-[2-(aminocarbonyl)phenyl]-3,5-dichlorobenzamide], the EC50 rises from 1.88 µM to 5.15 µM (2.7-fold).

Going from NC(=O)c1ccccc1NC(=O)c1cccc(COc2cccc(Cl)c2)c1 [compound 17, 2-({3-[(3-Chlorophenoxy)methyl]benzoyl}amino)benzamide] to COc1ccc(C(=O)Nc2ccccc2C(N)=O)cc1COc1ccccc1Cl [compound 26, 2-{3-[(2-Chlorophenoxy)methyl]-4-methoxybenzamido}benzamide], the EC50 rises from 0.675 µM to 1.1 µM (1.6-fold). The first is the more potent here.

Going from NC(=O)c1ccccc1OCC(=O)c1ccc(Br)cc1 [compound 19, 2-[2-(4-Bromophenyl)-2-oxoethoxy]benzamide] to COc1ccc(C(=O)Nc2sccc2C(N)=O)cc1COc1ccccc1Cl [compound 27, 2-{3-[(2-Chlorophenoxy)methyl]-4-methoxybenzamido}thiophene-3-carboxamide], the EC50 falls from 2.95 µM to 1.66 µM (1.8-fold). The second is the more potent here.

NC(=O)c1ccccc1NC(=O)CN1CCN(Cc2ccc(Cl)c(Cl)c2)CC1 [compound 20, 2-({[4-(3,4-Dichlorobenzyl)-1-piperazinyl]acetyl}amino)benzamide] and NC(=O)c1ccccc1NC(=O)CN1CCN(Cc2ccc(Cl)cc2Cl)CC1 [compound 21, 2-({[4-(2,4-Dichlorobenzyl)-1-piperazinyl]acetyl}amino)benzamide] are within 1.5-fold of each other in EC50: 1.22 µM for the first, 0.993 µM for the second.

Going from NC(=O)c1ccccc1NC(=O)CN1CCN(Cc2c(Cl)cccc2Cl)CC1 [compound 22, 2-({[4-(2,6-Dichlorobenzyl)-1-piperazinyl]acetyl}amino)benzamide] to NC(=O)c1ccccc1NC(=O)CN1CCN(Cc2ccc(F)cc2Cl)CC1 [compound 25, 2-({[4-(2-Chloro-4-fluorobenzyl)-1-piperazinyl]acetyl}amino)benzamide], the EC50 falls from 6.46 µM to 3.17 µM (2-fold).

Compared with NC(=O)c1ccccc1NC(=O)CN1CCN(Cc2ccc(Cl)cc2)CC1 [compound 23, 2-({[4-(4-Chlorobenzyl)-1-piperazinyl]acetyl}amino)benzamide], COc1cc(C=CC(=O)Nc2ccccc2C(N)=O)ccc1OCc1ccccc1 [compound 28, 2-({3-[4-(Benzyloxy)-3-methoxyphenyl]acryloyl}amino)benzamide] is 1.6-fold lower in EC50: 2.99 µM for the first, 1.88 µM for the second.

Going from NC(=O)c1c(NC(=O)c2ccc(Cl)s2)sc2c1CCC2 [compound 29, 2-{[(5-Chloro-2-thienyl)carbonyl]amino}-5,6-dihydro-4H-cyclopenta[b]thiophene-3-carboxamide] to NC(=O)c1c(NC(=O)c2ccc(Cl)s2)sc2c1CCCC2 [compound 30, 2-{[(5-Chloro-2-thienyl)carbonyl]amino}-4,5,6,7-tetrahydro-1-benzothiophene-3-carboxamide], the EC50 falls from 6.27 µM to 1.47 µM (4.3-fold).

Compared with NC(=O)c1cc(Cc2ccccc2)sc1NC(=O)c1cccs1 [compound 31, N-[3-(aminocarbonyl)-5-benzyl-2-thienyl]-2-thiophenecarboxamide], NC(=O)c1cc(Cc2ccccc2)sc1NC(=O)Cc1cccs1 [compound 34, 5-Benzyl-2-[(2-thienylacetyl)amino]-3-thiophenecarboxamide] is 1.7-fold higher in EC50: 0.671 µM for the first, 1.16 µM for the second.

Going from CCc1cc(C(=O)Nc2sc(Cc3ccccc3)cc2C(N)=O)cs1 [compound 32, 5-Benzyl-2-{[(5-ethyl-3-thienyl)carbonyl]amino}-3-thiophenecarboxamide] to CCc1c(C(=O)Nc2sc(Cc3ccccc3)cc2C(N)=O)csc1C [compound 33, 5-Benzyl-2-{[(4-ethyl-5-methyl-3-thienyl)carbonyl]amino}-3-thiophenecarboxamide], the EC50 rises from 1.9 µM to 5.06 µM (2.7-fold).

Going from NC(=O)c1cc(Cc2ccccc2)sc1NC(=O)c1ccc2c(c1)OCO2 [compound 38, N-[3-(aminocarbonyl)-5-benzyl-2-thienyl]-1,3-benzodioxole-5-carboxamide] to NC(=O)c1cc(Cc2ccccc2)sc1NC(=O)CCc1ccccc1 [compound 39, 5-Benzyl-2-[(3-phenylpropanoyl)amino]-3-thiophenecarboxamide], the EC50 rises from 1.3 µM to 6.21 µM (4.8-fold). The first is the more potent here.

NC(=O)c1cc(Cc2ccccc2)sc1NC(=O)COc1ccccc1 [compound 40, 5-Benzyl-2-[(phenoxyacetyl)amino]-3-thiophenecarboxamide] and CC(C)c1cc(C(N)=O)c(NC(=O)Cc2ccc(Cl)c(Cl)c2)s1 [compound 42, 2-{[(3,4-Dichlorophenyl)acetyl]amino}-5-isopropyl-3-thiophenecarboxamide] are within 1.5-fold of each other in EC50: 2.42 µM for the first, 2.45 µM for the second.

same assay, conditions: ovarian cancer-derived ES-2 cells, 72 h post compound application, eleven concentrations, two-fold dilution from 20µM, mean of three independent studies

For “2-({4-[(2-Bromophenoxy)methyl]benzoyl}amino)-5-isopropyl-3-thiophenecarboxamide [compound 57]”, the EC50 was 3.74 µM.
